# Results from patent US20200289482A1, “CYSTIC FIBROSIS TRANSMEMBRANE CONDUCTANCE REGULATOR MODULATORS FOR TREATING AUTOSOMAL DOMINANT POLYCYSTIC KIDNEY DISEASE” (The Johns Hopkins University, priority 2017, published 2020).
# Key:
# [1] = test system: Hsp70; assay: Cycloheximide chase, disappearance of Hsp70 in PN cells; type: cell-based, mouse; details: VX-809 10 μM with cycloheximide 25 μM
# Experimental: FIG. 9A, FIG. 9B, FIG. 9C, FIG. 9D, FIG. 9E, FIG. 9F, FIG. 9G, and FIG. 9H show Hsp27, HSp70, and Hsp90 expression in PN cells treated with VX-809 and/or cycloheximide. (A) Pkd1 null (PN) cells were treated with VX-809 (10 μM) and/or with cycloheximide (25 μM) for indicated time points before being harvested for the assay. (FIG. 9A) Western blot showing expression of Hsp27, Hsp70, and Hsp90 in VX-809-(16 h), cycloheximide-treated, or control PN cells. ((FIG. 9B. (FIG. 9C, and (FIG. 9D) Columns represent averages±standard errors of Hsp27, Hsp70, and Hsp90 expression in cells treated with VX-809 and/or cycloheximide. ((FIG. 9E) Western blot showing expression of Hsp27, Hsp70, and Hsp90 in PN cells treated with VX-809+cycloheximide or control PN cells. ((FIG. 9F, (FIG. 9G, and (FIG. 9H) Columns represent averages±standard errors of Hsp27, Hsp70, and Hsp90 expression in cells treated only with cycloheximide or in control PN cells. Data were analyzed by non-parametric t-test. The experiments were repeated 3-5 times. *P<0.05, **P<0.01;
# To gain more insight into the mechanism whereby VX-809 alters Hsp protein levels, translation was inhibited by using cycloheximide (35) and the disappearance of the three Hsps was monitored. […] Hsp 90 was reduced by approximately 25%, and Hsp27 was unchanged.
# [2] = test system: GRP78; assay: Western blot of ER stress marker GRP78 in kidney tissue; type: in vivo, mouse; details: cyst induced pkd−/− mice, VX-809 30 mg/kg BW
# Experimental: (§1) FIG. 11A. FIG. 11B, FIG. 11C, FIG. 11D, and FIG. 11E show expression of ER stress markers GRP78, ErO1, and GADD in Pkd1^−/− mice treated with VX-809. (FIG. 11A & FIG. 11D) Representative Western blot images of GRP78, ErO1, and GADD in lysates of kidney tissue from no cyst induced (ND), cyst induced with doxycycline (D) or cyst induced pkd−/− mice treated with VX-809 (D+VX-809) 30 mg/kg BW. (FIG. 11B, FIG. 11C and FIG. 11E) Columns represent averages±standard errors of GRP78, ErO1, and GADD153 expression. Data were analyzed by non-parametric t-test. n=4 for each treated and control groups. Black lines between lanes represent representative experiments from the same gel but loaded in different lanes. **P<0.01, ***P<0.001;
# (§2) Given that VX-809 alters an ensemble of Hsps, it was evaluated whether VX-809 alters proteins associated with ER stress. To address this question, the levels of three ER stress-associated proteins were measured, 78-kDa glucose-regulated protein (GRP78), ER oxidoreductin 1 (Ero1) and DNA damage-inducible protein 3 (GADD153), also known as C/EBP homologous protein (CHOP) (37). The results are depicted in FIG. 11 show no changes in GRP78 or Ero1 in response to VX-809.
# [3] = test system: PC2; assay: Confocal microscopy localization of PC2; type: cell-based; details: VX-809 treated vs control cells; ER, Golgi and PM markers
# From the text: FIG. 17A and FIG. 17B show images of confocal microscopy localization studies of PC2 and localization markers in control and treated cells (FIG. 17A) and graphs showing Pearson's correlation coefficient for PC2 and localization markers in control and VX-809 treated cells (FIG. 17B).
# The localization of PC2 and CFTR in control cells was compared to the localization of PC2 and CFTR localization in VX-809 treated cells.
# [4] = test system: Hsp90; assay: Western blot of Hsp90 in kidney tissue lysates; type: in vivo, mouse; details: cyst induced pkd−/− mice, VX-809 30 mg/kg BW
# Experimental: FIG. 7A, FIG. 7B, FIG. 7C, FIG. 7D, FIG. 7E, and FIG. 7F show chaperone expression is altered in mice by VX-809. (FIG. 7A-FIG. 7B) Representative Western blot images of HSP27, 70, 90 and HSP40 in lysates of kidney tissue from no cyst induced (ND), cyst induced with Doxycycline (D) or cyst induced pkd−/− mice treated with VX-809 (D+VX-809) 30 mg/kg BW. (FIG. 7C, FIG. 7D, FIG. 7E, and FIG. 7F) Columns represent averages±standard errors of HSP27, 70, 90 and HSP40 expression. Data were analyzed by non-parametric t-test. n=4 for each treated and control groups. Black lines between lanes represent representative experiments from the same gel. *P<0.05; **P<0.01; To facilitate their growth in the kidney, cysts have developed an altered network of proteins that most likely serves to protect them from stress (34). Next, it was determined whether VX-809 would alter the levels of Hsps in pkd−/− mice and in PN cells. […] Hsp 27, 70 and 90 are all elevated in cystic kidneys compared to normal controls. […] There is no change in Hsp 40. […] Both sets of data are consistent with an alteration in the heat shock response to cyst growth.
# [5] = test system: PC2; assay: Western blot of PC2 expression; type: cell-based, mouse; details: PN cells, endogenous PC2
# Experimental: FIG. 6A and FIG. 6B show PC2 expression is unchanged by VX-809. (FIG. 6A) Western blot showing expression of PC2 in treated or control cells. (FIG. 6B) Columns represent the means±SEM of the PC2 expression. The data were analyzed by non-parametric t-test. The experiment was repeated six (control) or seven times;
# PC2 is a 968-amino acid protein with an approximate molecular weight of 100 kDa in its monomeric form. To determine whether VX-809 affects PC2 protein expression, western blot experiments were conducted on PN cells to determine the resting levels of endogenous PC2.
# [6] = test system: Ero1; assay: Western blot of ER stress marker Ero1 in kidney tissue; type: in vivo, mouse; details: cyst induced pkd−/− mice, VX-809 30 mg/kg BW
# Experimental: as §1, §2
substance,measurement,setting,value
lumacaftor [VX-809],Hsp70 levels over the 8-h period relative to time 0,[1],approximately half the level observed at time 0
same,GRP78 expression,[2],no changes
same,localization of PC2,[3],statistically significant move of PC2 from the ER to Golgi
same,Hsp90 expression in kidneys,[4],significantly less expression
same,PC2 expression,[5],no effect on PC2 expression
same,Ero1 expression,[6],no changes
